# Measurements from PubChem BioAssay AID651581 (Sanford-Burnham Center for Chemical Genomics, 2012).
# Calls of active or inactive are those of the source. No rule for the calls is given here.
# What was measured:
# [1] = target: Endothelial PAS domain-containing protein 1 (Homo sapiens) (UniProt Q99814); assay: potency against HIF reporters across cell lines – luminescence, panel, selectivity assay for HIF-2a inhibitor project, dose response (AID 651581); settings: human cell HIF reporter
# [2] = target: Hypoxia-inducible factor 1-alpha (Homo sapiens) (UniProt Q16665); assay: as above; settings: human cell HIF reporter, HIF-1a
# Hypoxia-inducible factor 1-alpha (Homo sapiens), sequence (Q16665 whole entry, looked up): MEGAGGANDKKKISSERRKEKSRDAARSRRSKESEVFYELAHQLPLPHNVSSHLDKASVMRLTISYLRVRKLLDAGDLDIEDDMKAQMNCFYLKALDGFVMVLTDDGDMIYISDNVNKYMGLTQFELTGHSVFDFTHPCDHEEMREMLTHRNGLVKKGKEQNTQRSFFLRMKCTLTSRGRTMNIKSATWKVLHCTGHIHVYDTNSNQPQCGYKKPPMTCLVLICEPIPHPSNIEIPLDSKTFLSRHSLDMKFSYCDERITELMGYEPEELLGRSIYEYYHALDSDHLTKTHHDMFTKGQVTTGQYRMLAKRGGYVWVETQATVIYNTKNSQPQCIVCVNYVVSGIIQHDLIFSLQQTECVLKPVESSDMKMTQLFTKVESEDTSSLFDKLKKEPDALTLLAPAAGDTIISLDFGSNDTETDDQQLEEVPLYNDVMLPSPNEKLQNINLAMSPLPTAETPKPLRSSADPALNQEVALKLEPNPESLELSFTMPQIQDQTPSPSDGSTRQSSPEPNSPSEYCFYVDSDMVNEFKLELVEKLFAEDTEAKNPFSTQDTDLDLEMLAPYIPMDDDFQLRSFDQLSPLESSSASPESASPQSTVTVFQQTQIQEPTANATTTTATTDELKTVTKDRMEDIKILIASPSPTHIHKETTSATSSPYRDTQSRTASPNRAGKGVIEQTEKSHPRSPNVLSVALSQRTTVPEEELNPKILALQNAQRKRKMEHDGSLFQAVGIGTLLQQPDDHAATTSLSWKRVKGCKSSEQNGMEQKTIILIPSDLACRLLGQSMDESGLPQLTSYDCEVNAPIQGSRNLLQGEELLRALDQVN
SMILES,"IC50 ([1]; HIF-2a PANC, mean of runs)","IC50 ([1]; HIF-2a PANC, run 1) [µM]","IC50 ([1]; HIF-2a PANC, run 2) [µM]","IC50 ([1]; HIF-2a, mean of runs)","IC50 ([1]; HIF-2a, run 1) [µM]","IC50 ([1]; HIF-2a, run 2) [µM]",IC50 ([2]; run 1) [µM],IC50 ([2]; run 2) [µM],IC50 ([2]; mean of runs)
O=C(NNc1nc2ccccc2o1)c1ccccc1,> 99 µM (inactive),> 99,> 99,6.37 µM,6.68,6.06,46.1,> 99,–
Cc1cc(C(=O)Nc2cccc(C(=O)O)c2)oc1C,> 99 µM (inactive),> 99,> 99,6.46 µM,6.81,6.12,41.9,> 99,–
NCCN1C(=O)S/C(=C\c2ccc3c(c2)OCO3)C1=O,inactive,9.33,4.41,1.12 µM,1.15,1.09,6.19,5.6,5.89 µM
CCOc1cc(/C=N/Nc2cccc(C(=O)O)c2)ccc1OC(=O)c1ccccc1,–,> 99,30.1,4.22 µM,4.44,4,> 99,> 99,–
COC(=O)c1ccc(C(=O)OC)c(-n2c(=O)c3ccccc3c3ccccc3c2=O)c1,> 99 µM (inactive),> 99,> 99,inactive,25.7,25.2,38.2,42.4,inactive
Cc1c(CCC(=O)N[C@@H](CC(C)C)C(=O)O)c(=O)oc2cc3oc4c(c3cc12)CCCC4,2.77 µM,2.58,2.96,1.61 µM,1.61,1.61,2.65,4.05,inactive
Cc1c(CCC(=O)N2CCC[C@H]2C(=O)O)c(=O)oc2cc3oc4c(c3cc12)CCCC4,1.12 µM,1.11,1.12,0.512 µM,0.451,0.574,0.824,1.53,inactive
COc1ccc(CNC(=O)CCc2c(C)nc3cc(-c4ccccc4OC)nn3c2C)cc1,–,> 99,11.8,9.3 µM,10.1,8.49,26.8,6.7,inactive
Cc1nc(SCCC(=O)O)c2cc(-c3ccccc3)sc2n1,inactive,1.02,1.53,0.212 µM,0.196,0.228,> 99,1.56,–
CCC(=O)Nc1cccc(C(=O)c2ccc(C)c(C)c2)c1,–,> 99,> 99,–,> 99,1.57,> 99,38.7,–
Cc1ccc(S(=O)(=O)c2ncccc2[N+](=O)[O-])cc1,18.7 µM,20.6,16.9,9.71 µM,10,9.38,21.3,23,inactive
NNC(=O)c1cccc(COc2ccc3c(c2)CCC3)c1,> 99 µM (inactive),> 99,> 99,< 30 µM (inactive),< 30,< 30,> 99,> 99,–
COc1ccc(OCc2cccc(C(=O)O)c2)cc1,–,> 99,< 30,0.781 µM,0.76,0.802,19,33.7,26.3 µM
CCS(=O)(=O)c1ncc(Cl)c(C(=O)Nc2ccc(C)cc2)n1,30.5 µM,30.4,30.7,inactive,10.8,9.79,23.9,20,inactive
CNC(=O)NC(=O)COC(=O)CCCSc1nc2ccccc2s1,10.7 µM,15.8,5.59,4.96 µM,5.6,4.32,6.15,8.11,inactive
CCOc1ccc(OCc2cccc(C(=O)N3CCOCC3)c2)cc1,> 99 µM (inactive),> 99,> 99,–,7.59,< 30,> 99,> 99,–
CC(=O)Nc1ccc(NC(=O)c2ccc(-c3ccnn3C)c3ccoc23)cc1,1.85 µM,2.03,1.67,0.858 µM,0.938,0.777,3.89,> 99,–
CCOC(=O)c1cc(-c2csc(-c3ccc(C(C)(C)C)cc3)n2)on1,> 99 µM (inactive),> 99,> 99,4.82 µM,4.83,4.81,68.5,42.9,55.7 µM
N#C/C(=C\c1ccccc1)C(=O)N(c1ccccn1)C1CCCCC1,inactive,98.1,71.2,inactive,14.9,13.7,25.8,24.7,inactive
Cc1ccc(C(=O)c2cccc(N)c2)cc1C,inactive,3.29,6.42,0.864 µM,0.858,0.87,5.07,3.03,4.05 µM
N#Cc1c(NC(=O)CSc2ncn[nH]2)sc2c1CCCCC2,< 0.19 µM,< 0.19,< 10,< 0.3 µM,< 0.3,< 0.3,> 99,1.47,–
O=C1C=C(c2ccccc2)C(=O)N1Nc1ccccc1,> 99 µM (inactive),> 99,> 99,inactive,11.2,10.6,76,89.5,82.8 µM
COc1cccc(C(=O)C(C#N)=C(SC)SC)c1,inactive,47.8,47.4,5.75 µM,5.91,5.59,23.4,13.1,18.2 µM
Cc1nc2cc(-c3cccc(F)c3)nn2c(C)c1CCC(=O)N1CCC2(CC1)OCCO2,2.03 µM,2.17,1.9,1.27 µM,1.27,1.28,81.5,56.2,68.8 µM
COc1cccc(/C=N/Nc2ncccc2[N+](=O)[O-])c1OC,21.8 µM,22,21.6,–,8.21,< 30,20.3,20.1,inactive
C=CS(=O)(=O)c1sc(Cl)c(N2CCOCC2)c1[N+](=O)[O-],–,> 99,15.5,8.96 µM,9.47,8.45,47.5,> 99,–
